The record followed here is the supplement of paper PMC10307832.

Common to all, as to test: relative viability (nuclei count vs DMSO), 5 days (fraction); higher = more cells survive
Compound in the assay “Venetoclax + Pemetrexed”: CC1(C)CCC(CN2CCN(c3ccc(C(=O)NS(=O)(=O)c4ccc(NCC5CCOCC5)c([N+](=O)[O-])c4)c(Oc4cnc5[nH]ccc5c4)c3)CC2)=C(c2ccc(Cl)cc2)C1 [Venetoclax] + Nc1nc2[nH]cc(CCc3ccc(C(=O)N[C@@H](CCC(=O)O)C(=O)O)cc3)c2c(=O)[nH]1 [Pemetrexed] (partner 0.2 µM)
The essentials: (§1)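 Relative viability is defined as nuclei in treated wells over nuclei in vehicle wells. Duplicate plates were run and medians reported. Lung cancer cell lines in 1536-well plates were dosed by pin tool one day after seeding, with one drug or with a fixed anchor-drug dose plus five library-drug doses (not always all listed) in √10 steps, and nuclei were counted after 5 days.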

Compound in the assay “Venetoclax + Crizotinib”: CC1(C)CCC(CN2CCN(c3ccc(C(=O)NS(=O)(=O)c4ccc(NCC5CCOCC5)c([N+](=O)[O-])c4)c(Oc4cnc5[nH]ccc5c4)c3)CC2)=C(c2ccc(Cl)cc2)C1 [Venetoclax] + C[C@@H](Oc1cc(-c2cnn(C3CCNCC3)c2)cnc1N)c1c(Cl)ccc(F)c1Cl [Crizotinib] (partner 1 µM)
The essentials:
as §1

Compound in the assay “Selumetinib + Alpelisib”: Cn1cnc2c(F)c(Nc3ccc(Br)cc3Cl)c(C(=O)NOCCO)cc21 [Selumetinib] + Cc1nc(NC(=O)N2CCC[C@H]2C(N)=O)sc1-c1ccnc(C(C)(C)C(F)(F)F)c1 [Alpelisib] (partner 2 µM)
The essentials:
as §1

Compound in the assay “Selumetinib + Vorinostat”: Cn1cnc2c(F)c(Nc3ccc(Br)cc3Cl)c(C(=O)NOCCO)cc21 [Selumetinib] + O=C(CCCCCCC(=O)Nc1ccccc1)NO [Vorinostat] (partner 1 µM)
The procedure, abridged:
as §1

On to UMC-11, for which the relative viability in the assay with Venetoclax + Pemetrexed (first compound 0.01 µM) was 0.782; with Venetoclax + Pemetrexed (first compound 0.03162 µM), 0.666; with Venetoclax + Pemetrexed (first compound 0.1 µM) it was 0.731; in the assay with Venetoclax + Pemetrexed (first compound 0.3162 µM), 0.752; with Venetoclax + Pemetrexed (first compound 1 µM), 0.736; in the assay with Venetoclax + Crizotinib (first compound 0.01 µM) it was 0.625. Moreover, the relative viability with Venetoclax + Crizotinib (first compound 0.03162 µM) is 0.622; in the assay with Venetoclax + Crizotinib (first compound 0.1 µM), 0.653; with Venetoclax + Crizotinib (first compound 0.3162 µM), 0.636; with Venetoclax + Crizotinib (first compound 1 µM), 0.614; with Selumetinib + Alpelisib (first compound 0.02 µM), 0.97; with Selumetinib + Alpelisib (first compound 0.06325 µM), 1.1. For the same cell line, the relative viability was found to be 1.01 in the assay with Selumetinib + Alpelisib (first compound 0.2 µM); 0.986 with Selumetinib + Alpelisib (first compound 0.6325 µM); 0.387 with Selumetinib + Vorinostat (first compound 0.02 µM); 0.285 with Selumetinib + Vorinostat (first compound 0.06325 µM); 0.348 with Selumetinib + Vorinostat (first compound 0.2 µM); 0.368 in the assay with Selumetinib + Vorinostat (first compound 0.6325 µM).
